Several values for one entry are separate records, joined by “and”; a condition that tells them apart may be missing. Equal values may be shown once. Toxic doses and inconclusive results are not listed. No stated cut-off is given here; in the data, active means T/C of 150% or more; inactive means T/C below 125%.
Tested on: L1210 leukemia ip in BDF1 mice, survival T/C
Test: NCI In Vivo Anticancer Drug Screen. Data for tumor model L1210 Leukemia (intraperitoneal) in B6D2F1 (BDF1) mice
Conditions: endpoint: mean survival time, higher = longer survival
Outline: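 In this screen, tumor-bearing mice given compound are compared to those given vehicle, and their survival values are reported as a treated-to-control quotient.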

[1] = dose: 100.0 mg/kg/injection, schedule: Q04DX002 (ip), vehicle: Klucel (hydroxypropylcellulose) (HPC)
[2] = dose: 200.0 mg/kg/injection, schedule: Q04DX002 (ip), vehicle: Klucel (hydroxypropylcellulose) (HPC)
[3] = dose: 400.0 mg/kg/injection, schedule: Q04DX002 (ip), vehicle: Klucel (hydroxypropylcellulose) (HPC)
[4] = dose: 75.0 mg/kg/injection, schedule: Q01DX001 (ip), vehicle: other
[5] = dose: 100.0 mg/kg/injection, schedule: Q01DX001 (ip), vehicle: saline
[6] = dose: 200.0 mg/kg/injection, schedule: Q01DX001 (ip), vehicle: saline
[7] = dose: 400.0 mg/kg/injection, schedule: Q01DX001 (ip), vehicle: saline
[8] = dose: 100.0 mg/kg/injection, schedule: Q04DX003 (ip), vehicle: saline
[9] = dose: 400.0 mg/kg/injection, schedule: Q04DX003 (ip), vehicle: saline
[10] = dose: 50.0 mg/kg/injection, schedule: Q01DX001 (ip), vehicle: saline
[11] = dose: 50.0 mg/kg/injection, schedule: Q01DX009 (ip), vehicle: Klucel (hydroxypropylcellulose) (HPC)
[12] = dose: 100.0 mg/kg/injection, schedule: Q01DX009 (ip), vehicle: Klucel (hydroxypropylcellulose) (HPC)
[13] = dose: 100.0 mg/kg/injection, schedule: Q04DX003 (ip), vehicle: Klucel (hydroxypropylcellulose) (HPC)
[14] = dose: 200.0 mg/kg/injection, schedule: Q04DX003 (ip), vehicle: Klucel (hydroxypropylcellulose) (HPC)
[15] = dose: 200.0 mg/kg/injection, schedule: Q01DX009 (ip), vehicle: Klucel (hydroxypropylcellulose) (HPC)
[16] = dose: 75.0 mg/kg/injection, schedule: Q04DX003 (ip), vehicle: Klucel (hydroxypropylcellulose) (HPC)
[17] = dose: 100.0 mg/kg/injection, schedule: Q01DX001 (ip), vehicle: Klucel (hydroxypropylcellulose) (HPC)
[18] = dose: 150.0 mg/kg/injection, schedule: Q04DX003 (ip), vehicle: Klucel (hydroxypropylcellulose) (HPC)
[19] = dose: 200.0 mg/kg/injection, schedule: Q01DX001 (ip), vehicle: Klucel (hydroxypropylcellulose) (HPC)
[20] = dose: 300.0 mg/kg/injection, schedule: Q04DX003 (ip), vehicle: Klucel (hydroxypropylcellulose) (HPC)
[21] = dose: 400.0 mg/kg/injection, schedule: Q01DX001 (ip), vehicle: Klucel (hydroxypropylcellulose) (HPC)

Measured: T/C

COC1OC(COS(C)(=O)=O)C(OS(C)(=O)=O)C(OC(=O)c2ccccc2)C1OC(=O)c1ccccc1 (stereo not drawn)
inactive: [1] 109 % of control | [2] 101 % of control | [3] 101 % of control

c1ccc(Cn2ccc3ccncc32)cc1
inactive: [4] 96 % of control

O=[N+]([O-])c1ccc(N=C=C(c2ccccc2)c2ccccc2)cc1
inactive: dose: 100.0 mg/kg/injection, schedule: Q04DX002 (ip), vehicle: DMSO 112 % of control | dose: 200.0 mg/kg/injection, schedule: Q04DX002 (ip), vehicle: DMSO 91 % of control | dose: 400.0 mg/kg/injection, schedule: Q04DX002 (ip), vehicle: DMSO 94 % of control

CCCCCSB(SCCCCC)c1ccccc1
inactive: [5] 89 % of control | [6] 89 % of control | [7] 92 % of control

Cc1nc(N)[nH]c(=O)c1CCC(=O)O
inactive: [8] 102 % of control | [9] 107 % of control

Cc1cc2cc3c(=O)[nH]c(=O)[nH]c3nc2cc1C
inactive: [5] 93 % of control | [6] 102 % of control | [7] 91 % of control

O=C(CCl)c1ccc(O)c(O)c1
inactive: dose: 6.25 mg/kg/injection, schedule: Q01DX009 (ip), vehicle: saline 94 % of control | dose: 12.5 mg/kg/injection, schedule: Q01DX009 (ip), vehicle: saline 105 % of control | dose: 33.0 mg/kg/injection, schedule: Q01DX001 (ip), vehicle: other 105 % of control | dose: 50.0 mg/kg/injection, schedule: Q01DX001 (ip), vehicle: other 108 % of control | [4] 109 % of control | dose: 112.0 mg/kg/injection, schedule: Q01DX001 (ip), vehicle: other 108 % of control

O=C1C(CO)=C[C@@H](O)[C@H]2O[C@@H]12
inactive: dose: 3.0 mg/kg/injection, schedule: Q01DX009 (ip), vehicle: saline 93 % of control | dose: 6.0 mg/kg/injection, schedule: Q01DX009 (ip), vehicle: saline 93 % of control | dose: 12.0 mg/kg/injection, schedule: Q01DX009 (ip), vehicle: saline 95 % of control | dose: 25.0 mg/kg/injection, schedule: Q01DX001 (ip), vehicle: saline 98 % of control | dose: 25.0 mg/kg/injection, schedule: Q01DX009 (ip), vehicle: saline 98 % of control | [10] 121 % of control | dose: 50.0 mg/kg/injection, schedule: Q01DX009 (ip), vehicle: saline 121 % of control | dose: 75.0 mg/kg/injection, schedule: Q01DX009 (ip), vehicle: saline 102 % of control | [5] 103 % of control and 123 % of control | dose: 150.0 mg/kg/injection, schedule: Q01DX009 (ip), vehicle: saline 109 % of control | [6] 106 % of control | [7] 111 % of control

CN(C)S(=O)(=O)c1ccc(NC(=O)OC2CCCCCCC2)cc1
inactive: [5] 96 % of control | [6] 94 % of control | [7] 89 % of control

COc1c(/C=C/[N+](=O)[O-])ccc2c(C)c(C)oc12
inactive: dose: 25.0 mg/kg/injection, schedule: Q01DX009 (ip), vehicle: Klucel (hydroxypropylcellulose) (HPC) 98 % of control | [11] 95 % of control | [12] 101 % of control | [13] 98 % of control | [14] 87 % of control | dose: 400.0 mg/kg/injection, schedule: Q04DX003 (ip), vehicle: Klucel (hydroxypropylcellulose) (HPC) 92 % of control

Oc1ccc2ccccc2c1Cc1ccccc1
inactive: dose: 100.0 mg/kg/injection, schedule: Q01DX009 (ip), vehicle: saline with Tween-80 99 % of control | dose: 200.0 mg/kg/injection, schedule: Q01DX009 (ip), vehicle: saline with Tween-80 89 % of control | dose: 400.0 mg/kg/injection, schedule: Q01DX009 (ip), vehicle: saline with Tween-80 92 % of control

S=C1NCCS1
inactive: dose: 50.0 mg/kg/injection, schedule: Q01DX001 (ip), vehicle: carboxymethylcellulose (CMC) 113 % of control | [11] 110 % of control | dose: 100.0 mg/kg/injection, schedule: Q01DX001 (ip), vehicle: carboxymethylcellulose (CMC) 102 % of control | [12] 108 % of control | [13] 108 % of control | dose: 200.0 mg/kg/injection, schedule: Q01DX001 (ip), vehicle: carboxymethylcellulose (CMC) 94 % of control | [15] 110 % of control | [14] 113 % of control

Cn1ncc2c(Cl)ncnc21
inactive: dose: 100.0 mg/kg/injection, schedule: Q01DX001 (ip), vehicle: other 113 % of control | dose: 200.0 mg/kg/injection, schedule: Q01DX001 (ip), vehicle: other 94 % of control | dose: 400.0 mg/kg/injection, schedule: Q01DX001 (ip), vehicle: other 102 % of control

COCC(=O)Oc1cc(-c2ccc(C)cc2C)c(OC(=O)COC)c(-c2ccc(C)cc2C)c1
inactive: [16] 90 % of control | [17] 90 % of control | [18] 87 % of control | [19] 91 % of control | [20] 93 % of control and 94 % of control | [21] 101 % of control

COC(=O)c1n[nH]c(C)c1N=NN1CCC(C(N)=O)CC1
inactive: dose: 9.38 mg/kg/injection, schedule: Q01DX001 (ip), vehicle: other 118 % of control | dose: 18.75 mg/kg/injection, schedule: Q01DX001 (ip), vehicle: other 109 % of control | dose: 37.5 mg/kg/injection, schedule: Q01DX001 (ip), vehicle: other 101 % of control

CCOC(=O)c1cc(OCC)nc(SC)n1
inactive: dose: 25.0 mg/kg/injection, schedule: Q01DX Z (ip), vehicle: methylcellulose (MC) 86 % of control | dose: 50.0 mg/kg/injection, schedule: Q01DX Z (ip), vehicle: methylcellulose (MC) 100 % of control

N#Cc1cccc2c(/C=N\NC(N)=S)nccc12
inactive: [1] 106 % of control | [2] 95 % of control | [3] 87 % of control

O=C(O)c1cc(I)ccc1I
inactive: [12] 93 % of control | [15] 104 % of control | dose: 400.0 mg/kg/injection, schedule: Q01DX009 (ip), vehicle: Klucel (hydroxypropylcellulose) (HPC) 103 % of control

CC1CCOC1=O (stereo not drawn)
inactive: [10] 96 % of control | [5] 107 % of control | [6] 105 % of control | [7] 96 % of control

COc1ccc(/C2=C/CCCCCC2)cc1
inactive: dose: 50.0 mg/kg/injection, schedule: Q01DX009 (ip), vehicle: acetone 87 % of control | dose: 100.0 mg/kg/injection, schedule: Q01DX009 (ip), vehicle: acetone 92 % of control | dose: 100.0 mg/kg/injection, schedule: Q04DX003 (ip), vehicle: acetone 96 % of control | dose: 200.0 mg/kg/injection, schedule: Q01DX009 (ip), vehicle: acetone 95 % of control | dose: 200.0 mg/kg/injection, schedule: Q04DX003 (ip), vehicle: acetone 103 % of control | dose: 400.0 mg/kg/injection, schedule: Q04DX003 (ip), vehicle: acetone 101 % of control

NC(=NCCCC(NCc1ccccc1)C(=O)O)N[N+](=O)[O-] (stereo not drawn)
inactive: dose: 75.0 mg/kg/injection, schedule: Q01DX009 (ip), vehicle: other 107 % of control | [8] 100 % of control | dose: 150.0 mg/kg/injection, schedule: Q01DX009 (ip), vehicle: other 111 % of control | dose: 200.0 mg/kg/injection, schedule: Q04DX003 (ip), vehicle: saline 102 % of control | dose: 300.0 mg/kg/injection, schedule: Q01DX009 (ip), vehicle: other 107 % of control | [9] 104 % of control | dose: 600.0 mg/kg/injection, schedule: Q01DX009 (ip), vehicle: other 105 % of control

O=C(Nc1ccc(C(=O)O)cc1)Nc1cccc(F)c1
inactive: [11] 102 % of control | [12] 111 % of control | [1] 95 % of control | [2] 98 % of control

Cc1ccc(C(O)(c2ccc(C)cc2)C2C(c3ccccc3)N2C)cc1 (stereo not drawn)
inactive: [17] 98 % of control | [19] 96 % of control | [21] 102 % of control

CCOC(=O)c1oc(C)nc1C
inactive: [17] 122 % of control | [19] 97 % of control | [21] 101 % of control

Cc1ccc(C(=O)C=Nc2ccccc2C(=O)O)cc1
inactive: [16] 94 % of control | [18] 95 % of control | [20] 103 % of control

Source: PubChem BioAssay AID248 (DTP/NCI, 2004)
